Data reported in PMC9299836 (eLife, 2022).
Values joined by “and” are separate entries in the source; they are usually repeats but may differ in a detail not shown here. Identical values can stand only once.

Experiments:
mGluR2 [1] = biological target: mGluR2 (Mus musculus, UniProt Q14BI2, A548F); assay: Live-cell FRET, azi-CRD (cysteine-rich domain) sensor in HEK293T cells; conditions: for Normalized FRET response, Mean (azi-CRD agonist DRC): maximal responses normalized to 1mM glutamate
mGluR2 [2] = biological target: mGluR2 (Mus musculus, UniProt Q14BI2, INS715F); assay: Live-cell FRET, azi-ECL2 (7TM domain, extracellular loop 2) sensor in HEK293T cells;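 also: Cy3/Cy5 click-labeled sensor, whole-membrane ROIs per cell, apparent FRET after bleed-through correction, ΔFRET as treatment minus pre-treatment signal, at room temperature, at least three biological replicates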
Chain of mGluR2 (Mus musculus, UniProt Q14BI2, INS715F) (Q14BI2 with tags, fused parts or gaps INS715F): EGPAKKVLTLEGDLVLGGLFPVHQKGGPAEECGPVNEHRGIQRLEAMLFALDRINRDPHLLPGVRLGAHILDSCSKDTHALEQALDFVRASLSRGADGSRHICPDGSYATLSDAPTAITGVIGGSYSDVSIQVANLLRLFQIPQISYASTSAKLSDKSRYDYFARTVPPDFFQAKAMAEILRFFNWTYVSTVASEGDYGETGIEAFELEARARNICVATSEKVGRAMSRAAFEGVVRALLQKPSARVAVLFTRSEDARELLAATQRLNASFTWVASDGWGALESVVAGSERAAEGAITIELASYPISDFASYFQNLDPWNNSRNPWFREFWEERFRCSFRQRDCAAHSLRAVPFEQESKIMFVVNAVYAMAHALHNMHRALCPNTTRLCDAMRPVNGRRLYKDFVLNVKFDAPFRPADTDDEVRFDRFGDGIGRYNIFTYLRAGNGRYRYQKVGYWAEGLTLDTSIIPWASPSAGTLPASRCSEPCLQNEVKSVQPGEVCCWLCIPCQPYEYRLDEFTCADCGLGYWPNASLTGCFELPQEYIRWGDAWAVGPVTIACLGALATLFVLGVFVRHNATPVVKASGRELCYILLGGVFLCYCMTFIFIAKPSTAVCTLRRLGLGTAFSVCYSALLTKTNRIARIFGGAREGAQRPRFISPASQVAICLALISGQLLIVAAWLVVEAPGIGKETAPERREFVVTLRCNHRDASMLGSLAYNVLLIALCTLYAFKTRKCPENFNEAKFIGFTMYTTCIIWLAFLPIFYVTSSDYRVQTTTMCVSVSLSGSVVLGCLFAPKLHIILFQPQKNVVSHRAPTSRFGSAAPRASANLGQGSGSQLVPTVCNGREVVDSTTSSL

mGluR2 [3] = biological target: T1, mGluR2 (Mus musculus, UniProt Q14BI2); assay: Functional calcium imaging, SNAP-mGluR2 (no FLAG-tag) with chimeric G protein Gqo5 in HEK293T cells; type: cell-based; set-up: Full length mGluR2 construct with an amber codon (TAG) mutation of amino acid A548 (azi-CRD) or N-terminal SNAP-tag (SNAP-mGluR2); host or cells: HEK293T; conditions: for Intracellular Ca2+ response, Mean / Intracellular Ca2+ response: normalized to 1mM glutamate; for Intracellular Ca2+ response: single experiments
T1 sequence (Q14BI2 19-872): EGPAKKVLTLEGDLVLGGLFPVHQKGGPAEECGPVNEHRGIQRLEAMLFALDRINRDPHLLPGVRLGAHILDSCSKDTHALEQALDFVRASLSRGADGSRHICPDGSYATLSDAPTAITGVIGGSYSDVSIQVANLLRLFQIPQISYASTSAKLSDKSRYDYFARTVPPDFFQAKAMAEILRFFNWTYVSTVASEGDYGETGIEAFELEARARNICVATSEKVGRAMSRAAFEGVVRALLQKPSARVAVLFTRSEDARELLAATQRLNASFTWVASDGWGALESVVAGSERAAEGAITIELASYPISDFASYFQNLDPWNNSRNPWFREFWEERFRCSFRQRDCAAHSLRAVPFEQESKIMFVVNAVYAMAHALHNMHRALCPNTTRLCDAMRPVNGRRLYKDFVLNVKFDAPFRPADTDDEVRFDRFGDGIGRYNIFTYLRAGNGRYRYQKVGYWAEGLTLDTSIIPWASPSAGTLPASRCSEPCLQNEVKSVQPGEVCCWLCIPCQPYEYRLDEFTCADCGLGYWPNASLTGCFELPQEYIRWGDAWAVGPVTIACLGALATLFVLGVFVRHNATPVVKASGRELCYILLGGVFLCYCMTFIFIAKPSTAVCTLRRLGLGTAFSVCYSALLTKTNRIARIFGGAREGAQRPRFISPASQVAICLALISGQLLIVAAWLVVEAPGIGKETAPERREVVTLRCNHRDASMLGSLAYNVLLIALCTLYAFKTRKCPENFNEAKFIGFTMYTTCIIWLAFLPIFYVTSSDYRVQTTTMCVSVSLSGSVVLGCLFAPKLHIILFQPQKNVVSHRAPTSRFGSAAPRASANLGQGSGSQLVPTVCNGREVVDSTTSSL

mGluR2 [4] = biological target: T1, mGluR2; assay: Live-cell FRET, SNAP-m2 (VFT domain) inter-subunit sensor in HEK293T cells; conditions: for Normalized FRET response, Mean (SNAP-m2 agonist DRC): maximal responses normalized to 1mM glutamate;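 as to all read-outs here: apparent FRET efficiency from whole-membrane ROIs of single cells, corrected for donor bleed-through and background, ΔFRET as treatment minus pretreatment signal, recorded at room temperature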

Chain of mGluR2 (Mus musculus, UniProt Q14BI2, A548F) (Q14BI2 19-872 A548F): as the sequence (Q14BI2 19-872) above, with A530F counted along it

SMILES: N[C@@]1(C(=O)O)CO[C@H]2[C@H](C(=O)O)[C@H]21 [LY379268]
- EC50 (mGluR2 [1]; Live-cell FRET titration EC50, azi-CRD, agonist alone, individual experiments): 12.7 nM and 14.3 nM and 9.97 nM and 8.96 nM and 10.9 nM and 13.4 nM and 14.5 nM and 16 nM and 14.4 nM and 12.2 nM and 11.3 nM and 13.2 nM and 11.7 nM and 11.4 nM and 10.4 nM and 14.2 nM and 9.03 nM and 7.75 nM
- EC50 (mGluR2 [1]; Mean half-maximum effective concentration (EC50), azi-CRD sensor, orthosteric agonist alone, nM for LY379268 (footnote)): 12.1 nM
- Hill slope (mGluR2 [1]; azi-CRD sensor, orthosteric agonist alone): 1.36
- Live-cell FRET max response normalized to 1mM glutamate (mGluR2 [1]; azi-CRD sensor, LY379268, individual values (N=25)): 1.396 and 1.075 and 1.11 and 1.161 and 1.042 (2×) and 1.039 and 1.015 and 1.054 and 0.99 and 1.034 and 0.9879 and 0.9896 and 1.016 and 1.007 and 1.046 and 1.009 (2×) and 0.9955 and 1.0569 and 1.003 and 0.9915 and 1.157 and 1.205 and 1.123
- Mean max response (normalized max ΔFRET) (mGluR2 [1]; azi-CRD, agonist alone (1 mM glutamate, 100 μM DCG-IV, 20 μM LY379268, 100 μM APDC), normalized to 1 mM glutamate): 1.06
- Normalized Max ΔFRET, Mean (mGluR2 [1]; azi-CRD, 20μM agonist, mean of cells, normalized to 1mM glutamate): 106.212
- Normalized FRET response, Mean (azi-CRD agonist DRC) (mGluR2 [1]; log[ligand] (M) -4.69897): 1.062
- Normalized FRET response, Mean (azi-CRD agonist DRC) (mGluR2 [1]; log[ligand] (M) -6): 1.058
- Normalized FRET response, Mean (azi-CRD agonist DRC) (mGluR2 [1]; log[ligand] (M) -7.1549): 0.9652
- Normalized FRET response, Mean (azi-CRD agonist DRC) (mGluR2 [1]; log[ligand] (M) -7.52288): 0.8398
- Normalized FRET response, Mean (azi-CRD agonist DRC) (mGluR2 [1]; log[ligand] (M) -8): 0.4669
- Normalized FRET response, Mean (azi-CRD agonist DRC) (mGluR2 [1]; log[ligand] (M) -8.39794): 0.1943
- Normalized FRET response, Mean (azi-CRD agonist DRC) (mGluR2 [1]; log[ligand] (M) -8.82391): 0.06461
- Normalized FRET response, Mean (azi-CRD agonist DRC) (mGluR2 [1]; log[ligand] (M) -9.52288): 0.04231
- Normalized FRET response, Mean (azi-CRD agonist DRC) (mGluR2 [1]; log[ligand] (M) -10): 0
- EC50 (mGluR2 [2]; EC50, live-cell FRET titration, azi-ECL2 sensor, LY379268, individual cell values (N=9)): 6.91 nM and 29 nM and 9.62 nM and 9.94 nM and 8.57 nM and 6.02 nM and 9.91 nM and 5.72 nM and 5.97 nM
- EC50 (mGluR2 [2]; Mean half-maximum effective concentration (EC50), azi-ECL2 sensor, orthosteric agonist alone, nM for LY379268 (footnote)): 10.2 nM
- Mean max response (normalized max ΔFRET) (mGluR2 [2]; azi-ECL2, agonist alone (1 mM glutamate, 100 μM DCG-IV, 20 μM LY379268, 100 μM APDC), normalized to 1 mM glutamate): 1.14
- Normalized ΔFRET response, Mean (agonist DRC) (mGluR2 [2]; azi-ECL2, log[agonist] (M) -4.69897, normalized to 1 mM glutamate): 1.14
- Normalized ΔFRET response, Mean (agonist DRC) (mGluR2 [2]; azi-ECL2, log[agonist] (M) -6, normalized to 1 mM glutamate): 1.108
- Normalized ΔFRET response, Mean (agonist DRC) (mGluR2 [2]; azi-ECL2, log[agonist] (M) -7.1549, normalized to 1 mM glutamate): 1.024
- Normalized ΔFRET response, Mean (agonist DRC) (mGluR2 [2]; azi-ECL2, log[agonist] (M) -7.52288, normalized to 1 mM glutamate): 0.9098
- Normalized ΔFRET response, Mean (agonist DRC) (mGluR2 [2]; azi-ECL2, log[agonist] (M) -8, normalized to 1 mM glutamate): 0.6174
- Normalized ΔFRET response, Mean (agonist DRC) (mGluR2 [2]; azi-ECL2, log[agonist] (M) -8.39794, normalized to 1 mM glutamate): 0.327
- Normalized ΔFRET response, Mean (agonist DRC) (mGluR2 [2]; azi-ECL2, log[agonist] (M) -8.82391, normalized to 1 mM glutamate): 0.1901
- Normalized ΔFRET response, Mean (agonist DRC) (mGluR2 [2]; azi-ECL2, log[agonist] (M) -9.52288, normalized to 1 mM glutamate): 0.0544
- Normalized ΔFRET response, Mean (agonist DRC) (mGluR2 [2]; azi-ECL2, log[agonist] (M) -10, normalized to 1 mM glutamate): 0
- Normalized ΔFRET response, Mean (agonist DRC) (mGluR2 [2]; azi-ECL2, log[agonist] (M) -10.699, normalized to 1 mM glutamate): 0
- Normalized Max ΔFRET, Mean (mGluR2 [2]; azi-ECL2, 20μM agonist, mean of cells, normalized to 1mM glutamate): 114.025
- Hill slope (mGluR2 [2]; azi-ECL2 sensor, orthosteric agonist alone): 1.03
- Live-cell FRET max response normalized to 1mM glutamate (mGluR2 [2]; azi-ECL2 sensor, LY379268, individual values (N=22)): 0.9523 and 0.965 and 0.9976 and 1.05 and 1.063 and 1.017 and 1.16 and 1.1 and 1.538 and 1.083 and 1.3913 and 1.033 and 1.4421 and 1.297 and 1.208 and 1.454 and 1.223 and 1.042 and 0.9949 and 1.12 and 0.9608 and 0.9946
- Normalized Max Intracellular Ca2+ Response, individual experiments (mGluR2 [3]; 100 μM DCG-IV, 10 μM LY379268, 300 μM APDC, normalized to 1 mM glutamate, single replicate): 1.134 and 1.073 and 0.9696
- Normalized Max Intracellular Ca2+ Response, mean (mGluR2 [3]; 1 mM Glu, 100 μM DCG-IV, 10 μM LY379268, 300 μM APDC, normalized to 1 mM glutamate): 1.059
- Intracellular Ca2+ response, Mean (mGluR2 [3]; log[agonist] (M) -5): 1.059
- Intracellular Ca2+ response (mGluR2 [3]; log[agonist] (M) -5): 1.059
- Intracellular Ca2+ response, Mean (mGluR2 [3]; log[agonist] (M) -5.30103): 1.029
- Intracellular Ca2+ response (mGluR2 [3]; log[agonist] (M) -5.30103): 1.067 and 1.001 and 1.018
- Intracellular Ca2+ response, Mean (mGluR2 [3]; log[agonist] (M) -5.69897): 1.028
- Intracellular Ca2+ response (mGluR2 [3]; log[agonist] (M) -5.69897): 0.9461 and 1.043 and 1.094
- Intracellular Ca2+ response, Mean (mGluR2 [3]; log[agonist] (M) -6): 1.014
- Intracellular Ca2+ response (mGluR2 [3]; log[agonist] (M) -6): 0.8943 and 1.055 and 1.093
- Intracellular Ca2+ response, Mean (mGluR2 [3]; log[agonist] (M) -6.60206): 0.8831
- Intracellular Ca2+ response (mGluR2 [3]; log[agonist] (M) -6.60206): 0.7751 and 0.9366 and 0.9375
- Intracellular Ca2+ response, Mean (mGluR2 [3]; log[agonist] (M) -7.1549): 0.4554
- Intracellular Ca2+ response (mGluR2 [3]; log[agonist] (M) -7.1549): 0.4206 and 0.5128 and 0.4328
- Intracellular Ca2+ response, Mean (mGluR2 [3]; log[agonist] (M) -7.52288): 0.1775
- Intracellular Ca2+ response (mGluR2 [3]; log[agonist] (M) -7.52288): 0.2096 and 0.1787 and 0.1441
- Intracellular Ca2+ response, Mean (mGluR2 [3]; log[agonist] (M) -8): 0.00736
- Intracellular Ca2+ response, Mean (mGluR2 [3]; log[agonist] (M) -8.39794): 0
- Intracellular Ca2+ response (mGluR2 [3]; log[agonist] (M) -8.39794): 0
- Intracellular Ca2+ response, Mean (mGluR2 [3]; log[agonist] (M) -8.82391): 0
- Intracellular Ca2+ response (mGluR2 [3]; log[agonist] (M) -8.82391): 0
- Intracellular Ca2+ response, Mean (mGluR2 [3]; log[agonist] (M) -9.52288): 0
- Intracellular Ca2+ response (mGluR2 [3]; log[agonist] (M) -9.52288): 0
- Intracellular Ca2+ response, Mean (mGluR2 [3]; log[agonist] (M) -10): 0
- Intracellular Ca2+ response (mGluR2 [3]; log[agonist] (M) -10): 0
- EC50 (mGluR2 [3]; one value per experiment, read-out: EC50, intracellular Ca2+ response): 84.9 nM and 98.9 nM and 71 nM
- Emax (mGluR2 [4]; HEK-293T, read-out: Normalized Max ΔFRET, SNAP-m2, 20μM agonist, individual cells, normalized to 1mM glutamate): 101%
- EC50 (mGluR2 [4]; Mean half-maximum effective concentration (EC50), SNAP-m2 sensor, orthosteric agonist alone, nM for LY379268 (footnote)): 30.6 nM
- Mean max response (normalized max ΔFRET) (mGluR2 [4]; SNAP-m2 (VFT), agonist alone (1 mM glutamate, 100 μM DCG-IV, 20 μM LY379268, 100 μM APDC), normalized to 1 mM glutamate): 1.01
- Normalized Max ΔFRET, Mean (mGluR2 [4]; SNAP-m2, 20μM agonist, mean of cells, normalized to 1mM glutamate): 101.061
- Hill slope (mGluR2 [4]; SNAP-m2 sensor, orthosteric agonist alone): –1.12
- Live-cell FRET max response normalized to 1mM glutamate (mGluR2 [4]; SNAP-m2 sensor, LY379268, individual values (N=23)): 0.9967 and 0.9702 and 0.9948 and 1.036 and 0.962 and 0.9651 and 1.05 (3×) and 1.035 and 1.049 and 1.015 and 0.9906 and 1.057 and 1.051 and 0.9532 and 0.9752 and 0.9335 and 1.106 and 1.013 and 0.9759 and 0.9961 and 1.019
- Normalized FRET response, Mean (SNAP-m2 agonist DRC) (mGluR2 [4]; log[ligand] (M) -6): -1.011
- Normalized FRET response, Mean (SNAP-m2 agonist DRC) (mGluR2 [4]; log[ligand] (M) -6.69897): -1.017
- Normalized FRET response, Mean (SNAP-m2 agonist DRC) (mGluR2 [4]; log[ligand] (M) -7.1549): -0.7975
- Normalized FRET response, Mean (SNAP-m2 agonist DRC) (mGluR2 [4]; log[ligand] (M) -7.52288): -0.6707
- Normalized FRET response, Mean (SNAP-m2 agonist DRC) (mGluR2 [4]; log[ligand] (M) -8): -0.3677
- Normalized FRET response, Mean (SNAP-m2 agonist DRC) (mGluR2 [4]; log[ligand] (M) -8.39794): -0.1637
- Normalized FRET response, Mean (SNAP-m2 agonist DRC) (mGluR2 [4]; log[ligand] (M) -8.82391): -0.07424
- Normalized FRET response, Mean (SNAP-m2 agonist DRC) (mGluR2 [4]; log[ligand] (M) -9.52288): -0.01697
- Normalized FRET response, Mean (SNAP-m2 agonist DRC) (mGluR2 [4]; log[ligand] (M) -10): -0.0059
- Normalized FRET response, Mean (SNAP-m2 agonist DRC) (mGluR2 [4]; log[ligand] (M) -10.699): 0
